US20250360167A1 (Keryx Biopharmaceuticals, Inc., priority 2013, published 2025)

Columns and labels:
Format in all cases: in vivo, human
[1] = Phase 3 trial (Example 1): cumulative IV iron intake to Week 52
Method: Laboratory measurements were conducted throughout the study to assess safety and efficacy. The dose and specific IV iron preparation administered (if necessary) were at the discretion of the PI. Oral iron therapy was not permitted. Calcium-containing drugs were not permitted if given within two hours of food ingestion (calcium-containing drugs were permitted two hours or more prior to or following food ingestion or at bedtime for the purpose of raising the serum calcium). No Vitamin C supplements were permitted. Patients were allowed to take daily water soluble vitamins that include a small amount of Vitamin C (e.g., Centrum, Nephrocaps, Renaphro), but those patients were instructed to take them two hours or more prior to or following food ingestion or at bedtime. IV iron therapy was not permitted if the ferritin level is >1000 micrograms/L or the TSAT is >30%. If it was deemed in the patient's best interest to receive IV iron outside these parameters, the Clinical Coordinating Center (CCC) was consulted, and when approved and documented, was not considered a protocol exception.
The cumulative IV iron intake from randomization to Week 52 will be compared between treatment groups. This variable will be similarly analyzed as the primary efficacy variable using ANCOVA method. The two-sided 95% confidence intervals of treatment differences for all above comparisons will be presented.

TSAT = test: Phase 2 trial (Example 2): TSAT
Excerpt: Change in serum phosphorus, ferritin and TSAT levels from baseline to end of treatment after 12 weeks are the primary endpoints.
The co-primary efficacy endpoints of this trial were the mean changes in serum phosphorus and TSAT from baseline to the end of the 12-week treatment period versus placebo in the ITT group.

hemoglobin = test: Phase 3 trial (Example 1): hemoglobin; set-up: Hemoglobin, Mean / Hemoglobin, Median / Hemoglobin, Change from Baseline, Mean / Hemoglobin, Change from Baseline, Median / Hemoglobin, LS Mean: unit not given here; conditions: for Hemoglobin, Mean / Hemoglobin, Median / Hemoglobin, LS Mean / Hemoglobin, Change from Baseline, Mean / Hemoglobin, Change from Baseline, Median / Hemoglobin, Treatment Differences, LS Mean (KRX-0502) − LS Mean (control), (SE): Table 17
Excerpt: Complete Blood Count (CBC) (white blood cell [WBC] count, white blood cell types [WBC differential], red blood cell [RBC] count, hematocrit [HCT], hemoglobin [Hgb], red blood cell indices, platelet [thrombocyte] count) was done at the Randomization Visit (Visit 4); at Visits 11 (Week 12), 14 (Week 24), 17 (Week 36), 20 (Week 48), and 21 (Week 52) of the 52-week Safety Assessment Period; and at Visit 25 (Week 56) of the Efficacy Assessment Period.

serum phosphorus = test: Phase 3 trial (Example 1), four-week placebo-controlled Efficacy Assessment Period: serum phosphorus; conditions: for Serum Phosphorus, Mean / Serum Phosphorus, Median: Efficacy Assessment Period; for Serum Phosphorus, Mean / Serum Phosphorus, Median / Serum Phosphorus, LS Mean / Serum Phosphorus, Treatment Differences, LS Mean (KRX-0502) − LS Mean (Placebo), (SE) / Serum Phosphorus, Change from Baseline, Mean / Serum Phosphorus, Change from Baseline, Median: Table 14; for Serum Phosphorus, Change from Baseline, Mean / Serum Phosphorus, Change from Baseline, Median: Week-52 baseline
Excerpt: This trial was a three-period, multicenter, safety and efficacy clinical trial.
Period 3 (Efficacy Assessment Period). Following the Safety Assessment Period, those patients randomized to treatment with ferric citrate entered a four-week, randomized, open-label, placebo-controlled Efficacy Assessment Period.
Serum phosphorus and calcium were checked at Visit 5 (Week 1), and every two weeks during the first 12 weeks after Visit 4 (Randomization Visit), and monthly for the rest of the Safety Assessment Period. During the Efficacy Assessment Period, serum phosphorus and calcium were drawn weekly. These values guided study drug administration. While on study drug, the use of other phosphate binders was not permitted. […] The titration of calcium acetate and sevelamer carbonate throughout the 52-week Safety Assessment Period were according to the current package inserts for these agents and/or at the discretion of the site PI.
Serum phosphorus and calcium were performed at Screening (Visit 0); weekly during the Washout Period after Visit 1 (Week −2); at Visit 4 (Randomization Visit); at Visits 5 (Week 1), 6 (Week 2), 7 (Week 4), 8 (Week 6), 9 (Week 8), 10 (Week 10), 11 (Week 12), 12 (Week 16), 13 (Week 20), 14 (Week 24), 15 (Week 28), 16 (Week 32), 17 (Week 36), 18 (Week 40), 19 (Week 44), 20 (Week 48), and 21 (Week 52) of the 52-week Safety Assessment Period; and at Visits 22 (Week 53), 23 (Week 54), 24 (Week 55) and 25 (Week 56) of the Efficacy Assessment Period.
There were two unique and distinct baseline assessments. The baseline for the Safety Assessment Period was the Randomization Visit (Visit 4) and was defined as “Week-O-baseline.” The baseline for the Efficacy Assessment Period was the last visit of the Safety Assessment Period (Visit 21, Week 52) and was defined as “study-baseline.”
The primary efficacy variable was analyzed via an ANCOVA model with treatment as the fixed effect and study-baseline as the covariate. Between-treatment differences were estimated and two-sided 95% confidence intervals for the differences were presented.

[2] = Method 1 to Handle Overlapping Doses, Table 19
[3] = Day 0 Baseline, Safety Assessment Period

## iron (+3), x (1, 2, 3-propanetricarboxylic acid, 2-hydroxy-), y (H2O) [KRX-0502]
[1]; [2]
  Average Daily IV iron intake based on the Cumulative IV iron intake to week 52 (Visit 4-21), Mean: 2.96
  Average Daily IV iron intake based on the Cumulative IV iron intake to week 52 (Visit 4-21), Median: 1.86
[1]; administered over a period of 52 weeks, stated as embodiment
  mean reduction in average cumulative IV iron intake: 51.6%
TSAT; Baseline, ITT group, n = 72
  TSAT, Baseline: 22%
TSAT; Week 12, last observation carried forward, ITT group, n = 72
  TSAT, End of Treatment (Week 12): 32%
TSAT; sample size assumption
  ending TSAT level at Visit 11 (Week 12): approximately 25%
hemoglobin; ANCOVA, Table E
  Mean Hemoglobin, LS Mean Difference from Active Control Group at Week 52: 0.4 g/dL
hemoglobin; Baseline (Day 0), Table E
  Mean Hemoglobin: 11.6 g/dL
hemoglobin; [3]
  Hemoglobin, Mean: 11.61
  Hemoglobin, Median: 11.45
hemoglobin; Table E
  Mean Hemoglobin, Change from Baseline at Week 52: -0.2 g/dL
hemoglobin; Week 12, ANCOVA
  Hemoglobin, LS Mean: 11.83
hemoglobin; Week 12
  Hemoglobin, Change from Baseline, Mean: 0.19
  Hemoglobin, Change from Baseline, Median: 0.10
  Hemoglobin, Mean: 11.82
  Hemoglobin, Median: 11.70
  Hemoglobin, Treatment Differences, LS Mean (KRX-0502) − LS Mean (control), (SE): 0.30 (0.14)
hemoglobin; Week 24, ANCOVA
  Hemoglobin, LS Mean: 11.56
hemoglobin; Week 24
  Hemoglobin, Change from Baseline, Mean: −0.08
  Hemoglobin, Change from Baseline, Median: −0.10
  Hemoglobin, Mean: 11.55
  Hemoglobin, Median: 11.30
  Hemoglobin, Treatment Differences, LS Mean (KRX-0502) − LS Mean (control), (SE): 0.12 (0.13)
hemoglobin; Week 36, ANCOVA
  Hemoglobin, LS Mean: 11.55
hemoglobin; Week 36
  Hemoglobin, Change from Baseline, Mean: −0.08
  Hemoglobin, Change from Baseline, Median: −0.10
  Hemoglobin, Mean: 11.54
  Hemoglobin, Median: 11.20
  Hemoglobin, Treatment Differences, LS Mean (KRX-0502) − LS Mean (control), (SE): 0.27 (0.14)
hemoglobin; Week 48, ANCOVA
  Hemoglobin, LS Mean: 11.52
hemoglobin; Week 48
  Hemoglobin, Change from Baseline, Mean: −0.12
  Hemoglobin, Change from Baseline, Median: −0.20
  Hemoglobin, Mean: 11.50
  Hemoglobin, Median: 11.20
  Hemoglobin, Treatment Differences, LS Mean (KRX-0502) − LS Mean (control), (SE): 0.30 (0.14)
hemoglobin; Week 52, ANCOVA
  Hemoglobin, LS Mean: 11.44
hemoglobin; Week 52, LOCF, Table E
  Mean Hemoglobin: 11.4 g/dL
hemoglobin; Week 52
  Hemoglobin, Change from Baseline, Mean: −0.20
  Hemoglobin, Change from Baseline, Median: −0.20
  Hemoglobin, Mean: 11.42
  Hemoglobin, Median: 11.20
  Hemoglobin, Treatment Differences, LS Mean (KRX-0502) − LS Mean (control), (SE): 0.36 (0.14)
Serum phosphorus; End of Treatment (Week 56), LOCF, Table A
  Mean Serum Phosphorus: 4.9 mg/dL
Serum phosphorus; Week 52 Baseline
  Serum Phosphorus, Mean: 5.16
  Serum Phosphorus, Median: 5.10
Serum phosphorus; Week 53, ANCOVA
  Serum Phosphorus, LS Mean: 4.92
Serum phosphorus; Week 53
  Serum Phosphorus, Mean: 4.90
  Serum Phosphorus, Median: 4.95
  Serum Phosphorus, Treatment Differences, LS Mean (KRX-0502) − LS Mean (Placebo), (SE): −1.73 (0.21)
  Serum Phosphorus, Change from Baseline, Mean: −0.31
  Serum Phosphorus, Change from Baseline, Median: −0.30
Serum phosphorus; Week 54, ANCOVA
  Serum Phosphorus, LS Mean: 4.80
Serum phosphorus; Week 54
  Serum Phosphorus, Mean: 4.78
  Serum Phosphorus, Median: 4.70
  Serum Phosphorus, Treatment Differences, LS Mean (KRX-0502) − LS Mean (Placebo), (SE): −2.08 (0.22)
  Serum Phosphorus, Change from Baseline, Mean: −0.36
  Serum Phosphorus, Change from Baseline, Median: −0.40
Serum phosphorus; Week 55, ANCOVA
  Serum Phosphorus, LS Mean: 4.76
Serum phosphorus; Week 55
  Serum Phosphorus, Mean: 4.75
  Serum Phosphorus, Median: 4.60
  Serum Phosphorus, Treatment Differences, LS Mean (KRX-0502) − LS Mean (Placebo), (SE): −2.18 (0.23)
  Serum Phosphorus, Change from Baseline, Mean: −0.41
  Serum Phosphorus, Change from Baseline, Median: −0.50
Serum phosphorus; Week 56, ANCOVA
  Serum Phosphorus, LS Mean: 4.94
Serum phosphorus; Week 56, ANCOVA, Table A
  Mean Serum Phosphorus, Least Squares (LS) Mean Difference from Placebo: -2.3 mg/dL
Serum phosphorus; Week 56
  Serum Phosphorus, Mean: 4.92
  Serum Phosphorus, Median: 4.60
  Serum Phosphorus, Treatment Differences, LS Mean (KRX-0502) − LS Mean (Placebo), (SE): −2.28 (0.23)
  Serum Phosphorus, Change from Baseline, Mean: −0.23
  Serum Phosphorus, Change from Baseline, Median: −0.50
Serum phosphorus; baseline Week 52, Table A
  Mean Serum Phosphorus: 5.2 mg/dL
  Mean Serum Phosphorus, Change from Baseline at Week 56: -0.3 mg/dL
